The compounds below were run against T1, PLD (phospholipase D) (assay: In vitro assay of PLD activity ([3H]-choline release from labelled PC)). Settings: Table 1, monocyclic thiazolidinones of Formula I; PLD isoform not stated.
T1 construct: fused on or other part: N-terminal polyhistidine tag (pFastBac HTc) on either enzyme
Type: biochemical, human
Protocol: Recombinant PLD1 and PLD2—Human PLD1 and PLD2 were isolated from Sf9 insect cells that had been infected with recombinant baculovirus vector, pFastBac™HTc vector (Life Technologies, Gaithersburg, Md.), containing PLD1 or PLD2 cDNAs.
PLD1 activity was assayed by measuring the generation of [^3H]-choline from [choline-methyl^3H](16:0, 16:0)PC.
The assay procedure for PLD2 was similar to that for PLD1, with the exception that arf1, PKC-α, and GTPγS were omitted from the reaction mixture. After addition of enzymes, the reactions were incubated for 1 hour at room temperature. Twenty microliters of 12% trichloroacetic acid (TCA) then were added to each sample, to stop the reaction and to precipitate the unreacted [choline-methyl^3H](16:0, 16:0)PC. Thereafter, the samples were passed through 0.65 μm Millipore 96 well filter plates to removed the excess [choline-methyl^3H](16:0, 16:0)PC. For each sample the filtrate (50 μl), which contained the [^3H]-choline released by PLD cleavage of PC, was analyzed using a TopCount™ Liquid Scintillation Counter, a product of Packard (Meriden, Conn.).

Compound | IC50
COC(=O)c1ccc(-c2ccc(/C=C3\SC(=O)NC3=O)o2)cc1 [Compound 31, 4-[5-(2,4-dioxo-thiazolidin-5-ylidenemethyl)-furan-2-yl]-benzoic acid methyl ester] | less active
COC(=O)c1ccc(-c2ccc(/C=C3\SC(=O)N(CC4CC4)C3=O)o2)cc1 [Compound 33, 4-[5-(3-cyclopropylmethyl-2,4-dioxo-thiazolidin-5-ylidenemethyl)-furan-2-yl]-benzoic acid methyl ester] | less active
COC(=O)c1ccc(-c2ccc(/C=C3\SC(=S)N(Cc4cc(OC)c(OC)c(OC)c4)C3=O)s2)cc1 [Compound 36, 4-{5-[4-oxo-2-thioxo-3-(3,4,5-trimethoxy-benzyl)-thiazolidin-5-ylidenemethyl]-thiophen-2-yl}-benzoic acid methyl ester] | less active

Same assay, conditions: Table 1, monocyclic thiazolidinones of Formula I; PLD isoform not stated; read-out: IC50

Compound | IC50 [nM]
O=C(O)CN1C(=O)/C(=C\c2ccc(-c3ccccc3)o2)SC1=S [Compound 1, [4-oxo-5-(5-phenyl-furan-2-ylmethylene)-2-thioxo-thiazolidin-3-yl]-acetic acid] | 4000
O=C(O)CN1C(=O)/C(=C\c2ccc(-c3cccc(Cl)c3)o2)SC1=S [Compound 3, {5-[5-(3-chloro-phenyl)-furan-2-ylmethylene]-4-oxo-2-thioxo-thiazolidin-3-yl}-acetic acid] | 2000
O=C(O)CCN1C(=O)/C(=C/c2ccc(-c3ccccc3Cl)o2)SC1=S [Compound 4, 3-{5-[5-(2-chloro-phenyl)-furan-2-ylmethylene]-4-oxo-2-thioxo-thiazolidin-3-yl}-propionic acid] | 800
O=C(O)CN1C(=O)/C(=C\c2ccc(-c3ccccc3Cl)o2)SC1=S [Compound 5, {5-[5-(2-chloro-phenyl)-furan-2-ylmethylene]-4-oxo-2-thioxo-thiazolidin-3-yl}-acetic acid] | 1800
O=C(O)c1cccc(-c2ccc(/C=C3/SC(=S)N(c4cccc(Cl)c4)C3=O)o2)c1 [Compound 6, 3-{5-[3-(3-chloro-phenyl)-4-oxo-2-thioxo-thiazolidin-5-ylidenemethyl]-furan-2-yl}-benzoic acid] | 400
COc1ccc(N2C(=O)/C(=C\c3ccc(-c4cccc(C(=O)O)c4)o3)SC2=S)cc1 [Compound 7, 3-{5-[3-(4-methoxy-phenyl)-4-oxo-2-thioxo-thiazolidin-5-ylidenemethyl]-furan-2-yl}-benzoic acid] | 1300
O=C(O)c1ccc(-c2ccc(/C=C3\SC(=S)N(c4cccc(C(F)(F)F)c4)C3=O)o2)cc1 [Compound 8, 4-{5-[4-oxo-2-thioxo-3-(3-trifluoromethyl-phenyl)-thiazolidin-5-ylidenemethyl]-furan-2-yl}-benzoic acid] | 1400
CCN1C(=O)/C(=C\c2ccc(-c3cccc(C(=O)O)c3)o2)SC1=S [Compound 9, 3-[5-(3-ethyl-4-oxo-2-thioxo-thiazolidin-5-ylidenemethyl)-furan-2-yl]-benzoic acid] | 600
Cc1cccc(N2C(=O)/C(=C/c3ccc(-c4ccc(C(=O)O)cc4)o3)SC2=S)c1 [Compound 10, 4-[5-(4-oxo-2-thioxo-3-m-tolyl-thiazolidin-5-ylidenemethyl)-furan-2-yl]-benzoic acid] | 600
Cc1cccc(N2C(=O)/C(=C/c3ccc(-c4cccc(C(=O)O)c4)o3)SC2=S)c1 [Compound 11, 3-[5-(4-oxo-2-thioxo-3-m-tolyl-thiazolidin-5-ylidenemethyl)-furan-2-yl]-benzoic acid] | < 400
COc1ccc(N2C(=O)/C(=C\c3ccc(-c4ccc(C(=O)O)cc4)o3)SC2=S)cc1 [Compound 12, 4-{5[3-(4-methoxy-phenyl)-4-oxo-2-thioxo-thiazolidin-5-ylidenemethyl]-furan-2-yl}-benzoic acid] | < 400
O=C(O)c1ccc(-c2ccc(/C=C3\SC(=S)N(c4cccc(F)c4)C3=O)o2)cc1 [Compound 13, 4-{5-[3-(3-fluoro-phenyl)-4-oxo-2-thioxo-thiazolidin-5-ylidenemethyl]-furan-2-yl}-benzoic acid] | 1700
O=C(O)c1ccc(-c2ccc(/C=C3\SC(=S)N(Cc4ccccc4)C3=O)o2)cc1 [Compound 14, 4-[5-(3-benzyl-4-oxo-2-thioxo-thiazolidin-5-ylidenemethyl)-furan-2-yl]-benzoic acid] | < 400
Cc1ccc(N2C(=O)/C(=C/c3ccc(-c4ccc(C(=O)O)cc4)o3)SC2=S)c(C)c1 [Compound 15, 4-{5-[3-(2,4-dimethyl-phenyl)-4-oxo-2-thioxo-thiazolidin-5-ylidenemethyl]-furan-2-yl}-benzoic acid] | < 400
O=C(O)c1cccc(-c2ccc(/C=C3\SC(=S)N(Cc4ccccc4)C3=O)o2)c1 [Compound 16, 3-[5-(3-benzyl-4-oxo-2-thioxo-thiazolidin-5-ylidenemethyl)-furan-2-yl]-benzoic acid] | < 900
O=C(O)c1ccc(-c2ccc(/C=C3\SC(=S)N(C4CCCCC4)C3=O)o2)cc1 [Compound 17, 4-[5-(3-cyclohexyl-4-oxo-2-thioxo-thiazolidin-5-ylidenemethyl)-furan-2-yl]-benzoic acid] | 500

Compound | IC50 [nM]
O=C(O)c1cccc(-c2ccc(/C=C3\SC(=S)N(c4cccc(F)c4)C3=O)o2)c1 [Compound 18, 3-{5-[3-(3-fluoro-phenyl)-4-oxo-2-thioxo-thiazolidin-5-ylidenemethyl]-furan-2-yl}-benzoic acid] | < 400
Cc1ccc(N2C(=O)/C(=C/c3ccc(-c4cccc(C(=O)O)c4)o3)SC2=S)c(C)c1 [Compound 19, 3-{5-[3-(2,4-dimethyl-phenyl)-4-oxo-2-thioxo-thiazolidin-5-ylidenemethyl]-furan-2-yl}-benzoic acid] | < 400
C=CCN1C(=O)/C(=C\c2ccc(-c3cccc(C(=O)O)c3)o2)SC1=S [Compound 20, 3-[5-(3-allyl-4-oxo-2-thioxo-thiazolidin-5-ylidenemethyl)-furan-2-yl]-benzoic acid] | 500
O=C(O)CCCN1C(=O)/C(=C/c2ccc(-c3ccc(Cl)c(Cl)c3)o2)SC1=S [Compound 21, 4-{5-[5-(3,4-dichloro-phenyl)-furan-2-ylidenemethyl]-4-oxo-2-thioxo-thiazolidin-3-yl}-butyric acid] | 400
O=C(O)CCCN1C(=O)/C(=C/c2ccc(-c3ccc(O)c(O)c3)o2)SC1=S [Compound 22, 4-{5-[5-(3,4-dihydroxy-phenyl)-furan-2-ylidenemethyl]-4-oxo-2-thioxo-thiazolidin-3-yl}-butyric acid] | 1600
O=C(O)c1ccc(N2C(=O)/C(=C/C=C/c3ccccc3)SC2=S)cc1 [Compound 23, 4-[4-oxo-5-(3-phenyl-allylidene)-2-thioxo-thiazolidin-3-yl]-benzoic acid] | 9000
O=C(O)c1cccc(-c2ccc(/C=C3\SC(=S)N(C4CCCCC4)C3=O)o2)c1 [Compound 24, 3-[5-(3-Cyclohexyl-4-oxo-2-thioxo-thiazolidin-5-ylidenemethyl)-furan-2-yl]-benzoic acid] | < 400
COC(=O)c1ccc(-c2ccc(/C=C3\SC(=S)N(Cc4cc(OC)c(OC)c(OC)c4)C3=O)o2)cc1 [Compound 26, 4-{5-[4-oxo-2-thioxo-3-(3,4,5-trimethoxy-benzyl)-thiazolidin-5-ylidenemethyl]-furan-2-yl}-benzoic acid methyl ester] | 3000
COc1cc(CN2C(=O)/C(=C/c3ccc(-c4ccc(C(=O)O)cc4)o3)SC2=S)cc(OC)c1OC [Compound 27, 4-{5-[4-oxo-2-thioxo-3-(3,4,5-trimethoxy-benzyl)-thiazolidin-5-ylidenemethyl]-furan-2-yl}-benzoic acid] | 3000
COC(=O)c1ccc(-c2ccc(/C=C3\SC(=S)N(CCCN4CCOCC4)C3=O)o2)cc1 [Compound 28, 4-{5-[3-(3-morpholin-4-yl-propyl)-4-oxo-2-thioxo-thiazolidin-5-ylidenemethyl]-furan-2-yl}-benzoic acid methyl ester] | 1500
O=C(O)c1ccc(-c2ccc(/C=C3\SC(=S)N(c4ccccc4)C3=O)o2)cc1 [Compound 29, 4-[5-(4-oxo-3-phenyl-2-thioxo-thiazolidin-5-ylidenemethyl)-furan-2-yl]-benzoic acid] | 4000
COC(=O)c1ccc(-c2ccc(/C=C3\SC(=S)N(Cc4ccccc4)C3=O)o2)cc1 [Compound 30, 4-[5-(3-benzyl-4-oxo-2-thioxo-thiazolidin-5-ylidenemethyl)-furan-2-yl]-benzoic acid methyl ester] | 16000
O=C(O)c1ccc(-c2ccc(/C=C3\SC(=S)N(Cc4ccccc4C(F)(F)F)C3=O)o2)cc1 [Compound 34, 4-{5-[4-oxo-2-thioxo-3-(2-trifluoromethyl-benzyl)-thiazolidin-5-ylidenemethyl]-furan-2-yl}-benzoic acid] | 1500
Cc1ccc(CN2C(=O)/C(=C/c3ccc(-c4ccc(C(=O)O)cc4)o3)SC2=S)cc1 [Compound 35, 4-{5-[3-(4-methyl-benzyl)-4-oxo-2-thioxo-thiazolidin-5-ylidenemethyl]-furan-2-yl}-benzoic acid] | 2000
O=C(O)c1ccc(-c2ccc(/C=C3\SC(=S)N(Cc4cccs4)C3=O)s2)cc1 [Compound 37, 4-[5-(4-oxo-3-thiophen-2-ylmethyl-2-thioxo-thiazolidin-5-ylidenemethyl)-thiophen-2-yl]-benzoic acid] | 5000

— patent publication US20040002526A1, “Phospholipase D inhibitors and uses thereof” (Cell Therapeutics, Inc., priority 2002, published 2004)
